Results from patent US8759256B2, “Herbicide composition comprising herbicide compound in acid form and acidifying agent” (priority 2001, dated 2014).

Legend:
[1] = cited from earlier work; for pKas: Table 1, acidic herbicide; for pKa: imidazolinone acids
[2] = test system: pinto bean; assay: greenhouse visual injury rating, Examples 9-10, pinto bean; format: in vivo; settings: Two Week
Text: (§1) Each treatment in the experiment was replicated three times. An untreated control was also included in the experiment.
(§2) These treatments were compared to PCC-1190 and PCC-1189 without the addition of an acidifying agent, a standard imidazolinone acid formulation (PURSUIT and SCEPTER), and an untreated control.
(§3) For the experiments, greenhouse flats 26 cm by 6 cm deep were filled with Metro Mix 350 potting soil. The soil was pre-wetted before filling the flats. Six furrows were pressed into the soil in each flat using a custom designed form. Corn, tame oats, velvet leaf (not used in Example 10), wheat, pinto beans, and sunflower were planted in each tray. One species was planted in each of the six rows in each flat. Five seeds were planted in each row of corn, pinto bean, and sunflower. Six seeds were planted in each row of tame oat and wheat. Because velvet leaf seeds were so small, the seeds were sprinkled in each row and the number of such seeds were not counted. Each flat was covered with 2 cm of Metro Mix 350 potting soil and placed in the greenhouse. Greenhouse conditions were 28/20 C day/night temperatures and 16/8 h day/night periods. Light was supplemented with 400 W sodium halide lights. The plants were allowed to germinate and grow in the greenhouse for 2 weeks and then treated. Treatments were mixed using serial dilutions. Each dilution reduced the herbicide rate by one half. All acidifying agents (e.g., PCC-I174, LI-136, sulfuric acid, and phosphoric acid) were calculated and mixed to provide acid concentrations of 0.9%.
(§4) At the time of treatment, crops were at the following stages: corn—2 to 3 lf, tame oat—2 to 3 lf, velvet leaf 2 if (not used in Example 10), pinto bean—2-3 lf, wheat—4 to 5 lf, and sunflower-2 lf. Plants were treated using a greenhouse track sprayer equipped with an 8001E nozzle and calibrated to deliver 140 L ha-1 at the height of the crop canopy. Each treatment was simultaneously applied to three trays of plants, one for each replicate. After treatment, the plants were left in the head house to dry and then transferred to the greenhouse. Plants in each treatment were evaluated visually for injury 1 week and 2 weeks after treatment.
(§5) The injury caused by the herbicide treatment was rated visually. […] All the plants of each species in each replication were given a single rating. A rating of 0=no injury—the plants look the same as the untreated. A rating of 100=dead—usually highly necrotic, brown and no chance of producing seed.
(§6) The ingredients of the herbicide compositions as applied are listed in the following tables, and were diluted with water and used at the rates indicated for herbicide ingredients and acidifying agents.

[3] = test system: corn; assay: greenhouse visual injury rating, Examples 9-10, corn; format: in vivo; settings: Two Week
Text: as §1, §2, §3, §4, §5, §6

[4] = test system: tame oat; assay: greenhouse visual injury rating, Examples 9-10, tame oat; format: in vivo; settings: Two Week
Text: as §1, §2, §3, §4, §5, §6

[5] = test system: wheat; assay: greenhouse visual injury rating, Examples 9-10, wheat; format: in vivo; settings: Two Week
Text: as §1, §2, §3, §4, §5, §6

[6] = test system: sunflower; assay: greenhouse visual injury rating, Examples 9-10, sunflower; format: in vivo; settings: Two Week
Text: as §1, §2, §3, §4, §5, §6

[7] = PCC-1189 0.031 LB AE/A + PHOSPHORIC ACID 2 % V/V
[8] = PCC-1189 0.245 3 AE/A + PHOSPHORIC ACID 2 V/V
[9] = PCC-1189 0.49 3 AE/A + PHOSPHORIC ACID 2 V/V
[10] = PCC-1189 .0155 LB AE/A + PHOSPHORIC ACID 2 % V/V
[11] = PCC-1189 .0613 LB AE/A + PHOSPHORIC ACID 2 % V/V
[12] = PCC-1189 .1225 LB AE/A + PHOSPHORIC ACID 2 % V/V
[13] = PCC-1189 0.031 LB AE/A + SULFURIC ACID 2 % V/V
[14] = PCC-1189 0.245 LB AE/A + SULFURIC ACID 2 % V/V
[15] = PCC-1189 0.49 LB AE/A + SULFURIC ACID 2 % V/V
[16] = PCC-1189 .0155 LB AE/A + SULFURIC ACID 2 % V/V
[17] = PCC-1189 .0613 LB AE/A + SULFURIC ACID 2 % V/V
[18] = PCC-1189 .1225 LB AE/A + SULFURIC ACID 2 % V/V

## Nc1c(Cl)c(Cl)nc(C(=O)O)c1Cl [Picloram]
[1]
  pKas: 2.3

## O=P(O)(O)O [PHOSPHORIC ACID]
[2]; [7]
  injury rated visually (0=no injury, 100=dead), Pinto Bean: 20.0
[2]; [8]
  injury rated visually (0=no injury, 100=dead), Pinto Bean: 30.0
[2]; [9]
  injury rated visually (0=no injury, 100=dead), Pinto Bean: 30.0
[2]; [10]
  injury rated visually (0=no injury, 100=dead), Pinto Bean: 10.0
[2]; [11]
  injury rated visually (0=no injury, 100=dead), Pinto Bean: 30.0
[2]; [12]
  injury rated visually (0=no injury, 100=dead), Pinto Bean: 25.0
[3]; [7]
  injury rated visually (0=no injury, 100=dead), Corn: 10.0
[3]; [8]
  injury rated visually (0=no injury, 100=dead), Corn: 10.0
[3]; [9]
  injury rated visually (0=no injury, 100=dead), Corn: 20.0
[3]; [10]
  injury rated visually (0=no injury, 100=dead), Corn: 10.0
[3]; [11]
  injury rated visually (0=no injury, 100=dead), Corn: 15.0
[3]; [12]
  injury rated visually (0=no injury, 100=dead), Corn: 10.0
[4]; [7]
  injury rated visually (0=no injury, 100=dead), Tame Oat: 0.0
[4]; [8]
  injury rated visually (0=no injury, 100=dead), Tame Oat: 0.0
[4]; [9]
  injury rated visually (0=no injury, 100=dead), Tame Oat: 0.0
[4]; [10]
  injury rated visually (0=no injury, 100=dead), Tame Oat: 0.0
[4]; [11]
  injury rated visually (0=no injury, 100=dead), Tame Oat: 0.0
[4]; [12]
  injury rated visually (0=no injury, 100=dead), Tame Oat: 0.0
[5]; [7]
  injury rated visually (0=no injury, 100=dead), Wheat: 0.0
[5]; [8]
  injury rated visually (0=no injury, 100=dead), Wheat: 0.0
[5]; [9]
  injury rated visually (0=no injury, 100=dead), Wheat: 0.0
[5]; [10]
  injury rated visually (0=no injury, 100=dead), Wheat: 0.0
[5]; [11]
  injury rated visually (0=no injury, 100=dead), Wheat: 0.0
[5]; [12]
  injury rated visually (0=no injury, 100=dead), Wheat: 0.0
[6]; [7]
  injury rated visually (0=no injury, 100=dead), Sunflower: 50.0
[6]; [8]
  injury rated visually (0=no injury, 100=dead), Sunflower: 60.0
[6]; [9]
  injury rated visually (0=no injury, 100=dead), Sunflower: 50.0
[6]; [10]
  injury rated visually (0=no injury, 100=dead), Sunflower: 50.0
[6]; [11]
  injury rated visually (0=no injury, 100=dead), Sunflower: 40.0
[6]; [12]
  injury rated visually (0=no injury, 100=dead), Sunflower: 50.0

## CC(C)C1(C)N=C(c2nc3ccccc3cc2C(=O)O)NC1=O (centres unmarked) [Imazaquin]
[1]
  pKas: 3.8
  pKa: approximately 3.8

## CCc1cnc(C2=NC(C)(C(C)C)C(=O)N2)c(C(=O)O)c1 (centres unmarked) [Imazethapyr]
[1]
  pKas: 3.9
  pKa: approximately 3.9

## O=C(O)CCCOc1ccc(Cl)cc1Cl [2,4-DB]
[1]
  pKas: 4.8

## O=S(=O)(O)O [SULFURIC ACID]
[2]; [13]
  injury rated visually (0=no injury, 100=dead), Pinto Bean: 10.0
[2]; [14]
  injury rated visually (0=no injury, 100=dead), Pinto Bean: 20.0
[2]; [15]
  injury rated visually (0=no injury, 100=dead), Pinto Bean: 30.0
[2]; [16]
  injury rated visually (0=no injury, 100=dead), Pinto Bean: 10.0
[2]; [17]
  injury rated visually (0=no injury, 100=dead), Pinto Bean: 0.0
[2]; [18]
  injury rated visually (0=no injury, 100=dead), Pinto Bean: 10.0
[3]; [13]
  injury rated visually (0=no injury, 100=dead), Corn: 20.0
[3]; [14]
  injury rated visually (0=no injury, 100=dead), Corn: 20.0
[3]; [15]
  injury rated visually (0=no injury, 100=dead), Corn: 20.0
[3]; [16]
  injury rated visually (0=no injury, 100=dead), Corn: 10.0
[3]; [17]
  injury rated visually (0=no injury, 100=dead), Corn: 10.0
[3]; [18]
  injury rated visually (0=no injury, 100=dead), Corn: 10.0
[4]; [13]
  injury rated visually (0=no injury, 100=dead), Tame Oat: 0.0
[4]; [14]
  injury rated visually (0=no injury, 100=dead), Tame Oat: 0.0
[4]; [15]
  injury rated visually (0=no injury, 100=dead), Tame Oat: 10.0
[4]; [16]
  injury rated visually (0=no injury, 100=dead), Tame Oat: 0.0
[4]; [17]
  injury rated visually (0=no injury, 100=dead), Tame Oat: 0.0
[4]; [18]
  injury rated visually (0=no injury, 100=dead), Tame Oat: 0.0
[5]; [13]
  injury rated visually (0=no injury, 100=dead), Wheat: 0.0
[5]; [14]
  injury rated visually (0=no injury, 100=dead), Wheat: 0.0
[5]; [15]
  injury rated visually (0=no injury, 100=dead), Wheat: 10.0
[5]; [16]
  injury rated visually (0=no injury, 100=dead), Wheat: 0.0
[5]; [17]
  injury rated visually (0=no injury, 100=dead), Wheat: 0.0
[5]; [18]
  injury rated visually (0=no injury, 100=dead), Wheat: 0.0
[6]; [13]
  injury rated visually (0=no injury, 100=dead), Sunflower: 30.0
[6]; [14]
  injury rated visually (0=no injury, 100=dead), Sunflower: 60.0
[6]; [15]
  injury rated visually (0=no injury, 100=dead), Sunflower: 80.0
[6]; [16]
  injury rated visually (0=no injury, 100=dead), Sunflower: 30.0
[6]; [17]
  injury rated visually (0=no injury, 100=dead), Sunflower: 40.0
[6]; [18]
  injury rated visually (0=no injury, 100=dead), Sunflower: 40.0

## Imazamethbenz
[1]
  pKas: 2.9
  pKa: approximately 2.9
